The results in this text go back to the supplement of paper PMC5579334.

The subject of experiment [1] is S1507-2. Put plainly: % inhibition of CellTiter-Glo viability at highest tested concentration (72 h), relative to DMSO and benzethonium chloride controls; higher = more inhibition. The method, boiled down:
(§1)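 Viability was scored by CellTiter-Glo ATP luminescence, scaled from vehicle to positive-control wells, with duplicates averaged where present. The cells, MPNST lines and primary human Schwann cells at 750–1000 per well, sat 72 h at 37 °C, 5% CO2, in 384-well plates preprinted with each compound at five concentrations in 10-fold steps. Four-parameter logistic fits were run on the data. These fits give drug sensitivity score and relative IC50 censored at the top concentration, and percent inhibition is reported at the top concentration.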
(In ATP-based viability assays light output follows the ATP content of the culture.)

Experiment [2] deals with STS26T. Described as above. The method, boiled down:
as §1

Experiment [3] concerns ST8814. The experiment is described as above. The method, boiled down:
as §1

Experiment [4] relates to HSC1 (primary human Schwann cells). The experiment is described as above. The method, boiled down:
as §1

For experiment [5], the system named is YST-1. The experiment is described as above. The method, boiled down:
as §1

Experiment [6] concerns HS-Sch-2. Described as above. The method, boiled down:
as §1

Experiment [7] deals with HS-PSS. The experiment is described as above. The method, boiled down: as §1
Experiment [8] relates to HSC2 (primary human Schwann cells). Described as above. The essentials: as §1
Experiment [9] has as its system S462. Described as above. The essentials: as §1
The subject of experiment [10] is S1507-2. Put plainly: drug sensitivity score (DSS, CellTiter-Glo viability, 72 h) (DSS (dimensionless)); higher = more sensitive; extreme values may be limits of the assay. The method, boiled down:
as §1

Experiment [11] has as its system STS26T. Described as above. The essentials:
as §1

The subject of experiment [12] is ST8814. The experiment is described as above. The essentials: as §1
Experiment [13] relates to HSC1 (primary human Schwann cells). The experiment is described as above. The essentials: as §1
Experiment [14] relates to YST-1. The description is as above. The essentials:
as §1

Experiment [15] relates to HS-Sch-2. The description is as above. The essentials: as §1
The subject of experiment [16] is HS-PSS. Described as above. The method, boiled down:
as §1

Experiment [17] concerns HSC2 (primary human Schwann cells). Described as above. The essentials:
as §1

Experiment [18] concerns S462. Described as above. The method, boiled down: as §1
Experiment [19] relates to S1507-2. Put plainly: drug sensitivity score (DSS, CellTox-Green cytotoxicity, 72 h) (DSS (dimensionless)); higher = more cytotoxic; extreme values may be limits of the assay. The method, boiled down:
(§2)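 MPNST cell lines and primary human Schwann cells were incubated 72 h at 37 °C in 384-well plates holding five 10-fold compound dilutions. CellTox-Green was added before seeding at a final 1:1000 dilution and reported fluorescence from DNA released by disrupted cells. Signals were scaled to vehicle and positive-control wells, and cultures failing plate quality control were dropped. Drug sensitivity score and relative IC50 come from four-parameter logistic fits, with IC50 censored at the top concentration.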

Experiment [20] concerns STS26T. The experiment is described as above. The method, boiled down:
as §2

For experiment [21], the system named is ST8814. Described as above. The essentials: as §2
In experiment [22] the test system is HSC1 (primary human Schwann cells). The experiment is described as above. The method, boiled down: as §2
Experiment [23] deals with HS-PSS. Described as above. The essentials: as §2
Experiment [24] deals with HSC2 (primary human Schwann cells). The description is as above. The essentials:
as §2

± gives the standard deviation of the averaged measurements.

For orientation: % inhibition means the drop in the measured response relative to a control, in per cent. Turning to `COc1cc2ncnc(Nc3ccc(F)c(Cl)c3)c2cc1NC(=O)/C=C/CN1CCCCC1` [Dacomitinib] (max concentration tested 1000 nM), the “% inhibition” value in experiment [1] came out at 24.7 ± 9.1%; in [2], 13.6%; in experiment [3], 16.4%; in [4], 12.1%; in experiment [5] it was 9.37%; in experiment [6], 32.6%. Besides, the results for the “% inhibition” value in experiment [7], in [8] and in experiment [9] were 35.4%, 19.3% and 7.49 ± 5.3%, respectively. The drug sensitivity score in [10] turned out to be 1.41 ± 1.5; in experiment [11] it was 0.0007; in experiment [12] it was 0.993; in [13], 0.027; in experiment [14], 0; in [15], 2.81. Further, the drug sensitivity score in [16] amounted to 3; in experiment [17] it was 0.456; in experiment [18], 0.0398 ± 0.056; in experiment [19], 1.18 ± 1.6; in experiment [20] it was 0; in [21], 0. Also, the drug sensitivity score amounted to 0 in [22], 1.85 in [23] and 0 in experiment [24].
Take `Cc1c2oc3c(C)ccc(C(=O)N[C@@H]4C(=O)N[C@H](C(C)C)C(=O)N5CCC[C@H]5C(=O)N(C)CC(=O)N(C)[C@@H](C(C)C)C(=O)O[C@@H]4C)c3nc-2c(C(=O)N[C@@H]2C(=O)N[C@H](C(C)C)C(=O)N3CCC[C@H]3C(=O)N(C)CC(=O)N(C)[C@@H](C(C)C)C(=O)O[C@@H]2C)c(N)c1=O` [Dactinomycin] (max concentration tested 1000 nM): the “% inhibition” value was 87 ± 3.5% in experiment [1]; 99% in experiment [2]; 85.6% in experiment [3]; 83% in experiment [4]; 101% in experiment [5]; 102% in experiment [6]. In addition, the “% inhibition” value came to 86.7% in experiment [7], 89.2% in experiment [8] and 99.1 ± 1.6% in [9]. The drug sensitivity score in experiment [10] is 23.4 ± 0.57; in experiment [11], 31.9; in [12], 25.3; in experiment [13] it was 30.8; in [14] it was 37.4; in experiment [15], 32.5. Also, the drug sensitivity score in experiment [16] worked out at 25.1; in experiment [17], 33.5; in experiment [18], 32.3 ± 1.7; in [19], 5.68 ± 3.9; in [20] it was 25.8; in experiment [21] it was 5.68. Also, the drug sensitivity score in experiment [22] was determined as 12.7; in experiment [23], 6.19; in [24], 14.7.
On to `Cn1c(=O)n(-c2ccc(C(C)(C)C#N)cc2)c2c3cc(-c4cnc5ccccc5c4)ccc3ncc21` [Dactolisib] (max concentration tested 1000 nM), for which the “% inhibition” value in experiment [1] was found to be 66 ± 2.8%; in [2] it was 67.7%; in experiment [3] it was 64%; in experiment [4], 75%; in experiment [5] it was 63.8%; in experiment [6], 61.8%. The “% inhibition” value in experiment [7] stood at 69.8%; in experiment [8], 78.3%; in experiment [9], 61 ± 0.72%. The drug sensitivity score in experiment [10] was determined as 15.8 ± 2.9; in experiment [11], 17.2; in [12], 14.3; in [13], 19.4; in [14] it was 14.7; in [15] it was 13.9. The drug sensitivity score stood at 14.4 in experiment [16]; 19.4 in experiment [17]; 13.2 ± 0.72 in experiment [18]; 0 in experiment [19]; 0 in experiment [20]; 0 in experiment [21]. Moreover, the drug sensitivity score in experiment [22] was found to be 0; in experiment [23], 0.12; in [24], 0.
Turning to `CO[C@@H](C(=O)N1Cc2[nH]nc(NC(=O)c3ccc(N4CCN(C)CC4)cc3)c2C1)c1ccccc1` [Danusertib] (max concentration tested 10000 nM), the “% inhibition” value in experiment [1] came to 66.7 ± 10%; in [2] it was 52.5%; in experiment [3], 85.7%; in experiment [4], 88.1%; in [5], 46.4%; in [6] it was 76.3%. Moreover, the “% inhibition” value in experiment [7] stood at 80.7%; in experiment [8], 90.9%; in [9] it was 88.7 ± 1.7%. For the same molecule, the drug sensitivity score in [10] worked out at 8.76 ± 2; in experiment [11] it was 5.54; in experiment [12], 8.83; in experiment [13], 11.4; in [14], 12.9; in experiment [15], 11.1. Also, the drug sensitivity score in experiment [16] was determined as 8.49; in experiment [17] it was 10.4; in [18], 13.9 ± 0.31; in experiment [19], 1.16 ± 0.24; in experiment [20], 3.88; in [21], 6.94. Moreover, the drug sensitivity score in [22] stood at 6.43; in experiment [23] it was 2.75; in experiment [24], 7.05.
Consider `O=C(/C=C/c1cccnc1)NCCCCC1CCN(C(=O)c2ccccc2)CC1` [Daporinad] (max concentration tested 1000 nM), for which the “% inhibition” value in [1] was found to be 87.9 ± 6.3%; in experiment [2] it was 95.5%; in [3] it was 93.2%; in experiment [4], 70.9%; in [5], 101%; in experiment [6], 101%. Also, the “% inhibition” value in experiment [7] came out at 90.9%; in experiment [8] it was 83.4%; in experiment [9] it was 100.3 ± 0.6%. The drug sensitivity score in [10] worked out at 15.02 ± 0.15; in experiment [11] it was 16.4; in experiment [12] it was 24.1; in [13], 18.8; in experiment [14], 31.1; in experiment [15], 29.8. In addition, the drug sensitivity score in experiment [16] worked out at 25; in experiment [17] it was 21.9; in experiment [18] it was 28.6 ± 0.7; in experiment [19] it was 0; in experiment [20] it was 9.24; in [21] it was 0. Besides, the drug sensitivity score in experiment [22], in [23] and in experiment [24] was 0 each time.
With `Cc1nc(Nc2ncc(C(=O)Nc3c(C)cccc3Cl)s2)cc(N2CCN(CCO)CC2)n1` [Dasatinib] (max concentration tested 1000 nM), the “% inhibition” value came out at 82.6 ± 2.6% in [1]; 64.8% in experiment [2]; 65.5% in [3]; 60% in experiment [4]; 20.6% in experiment [5]; 58.5% in experiment [6]. Moreover, the “% inhibition” value amounted to 19.3% in experiment [7], 49.2% in experiment [8] and 30.9 ± 1.7% in experiment [9]. In addition, the drug sensitivity score came to 12.3 ± 1.8 in [10]; 11.7 in experiment [11]; 10.2 in [12]; 8.49 in experiment [13]; 4.94 in experiment [14]; 7.09 in [15]. Moreover, the drug sensitivity score turned out to be 0.97 in experiment [16]; 5.78 in [17]; 4.46 ± 0.87 in experiment [18]; 1.53 ± 1.1 in experiment [19]; 3.95 in experiment [20]; 4.56 in [21]. Also, the drug sensitivity score in experiment [22], in [23] and in [24] was 0 each time.
